Results from ChEMBL document CHEMBL1201862, “PubChem BioAssay data set” (2004).
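The compound was tested at five concentrations on cells cultured in 96-well plates, with a 48-hour exposure period. GI50 is the concentration that inhibits growth by half.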 The source made the active and inactive calls. Rule as the data show it: active = GI50 up to about 1.1 µM and inactive = higher.

What was measured:
Assay in all cases: NCI anticancer screen, dose series, 48 h
[1] = system: Hs-578T
[2] = system: KM12
[3] = system: MDA-N
[4] = system: RPMI-8226
[5] = system: K562
[6] = system: CCRF-CEM
[7] = system: COLO 205
[8] = system: UACC-257
[9] = system: IGROV-1
[10] = system: A498
[11] = system: EKVX
[12] = system: NCI-H522
[13] = system: LOX IMVI
[14] = system: MDA-MB-231
[15] = system: HOP-92
[16] = system: SNB-75
[17] = system: U-251
[18] = system: NCI/ADR-RES
[19] = system: HT-29
[20] = system: HOP-62

| SMILES | GI50 [1] | GI50 [2] | GI50 [3] | GI50 [4] | GI50 [5] | GI50 [6] | GI50 [7] | GI50 [8] | GI50 [9] | GI50 [10] | GI50 [11] | GI50 [12] | GI50 [13] | GI50 [14] | GI50 [15] | GI50 [16] | GI50 [17] | GI50 [18] | GI50 [19] | GI50 [20] |
| --- | --- | --- | --- | --- | --- | --- | --- | --- | --- | --- | --- | --- | --- | --- | --- | --- | --- | --- | --- | --- |
| CC(=O)N1c2ccccc2C23CCN4CC5=CCOC(O)C(C5CC42)C13 (stereo not drawn) | > 100 µM (inactive) | > 100 µM (inactive) | > 100 µM (inactive) | > 100 µM (inactive) | 31.9 µM (inactive) | > 100 µM (inactive) | > 100 µM (inactive) | > 100 µM (inactive) | > 100 µM (inactive) | > 100 µM (inactive) | > 100 µM (inactive) | > 100 µM (inactive) | > 100 µM (inactive) | > 100 µM (inactive) | > 100 µM (inactive) | > 100 µM (inactive) | > 100 µM (inactive) | > 100 µM (inactive) | > 100 µM (inactive) | – |
| CCCCc1ccc(Nc2nc(Cl)c3c(ncn3COCCOC(C)=O)n2)cc1 | 21.5 µM (inactive) | 18 µM (inactive) | 18.8 µM (inactive) | 29 µM (inactive) | 24.4 µM (inactive) | 28.2 µM (inactive) | 22.3 µM (inactive) | 17.1 µM (inactive) | 19.2 µM (inactive) | 20.5 µM (inactive) | 19.8 µM (inactive) | 17.2 µM (inactive) | 17.5 µM (inactive) | 18.5 µM (inactive) | 18.6 µM (inactive) | 2.2 µM (inactive) | 22.9 µM (inactive) | 23.5 µM (inactive) | 18.7 µM (inactive) | 16.7 µM (inactive) |
| CCc1ccccc1N1CCN(C(=O)c2cc(OC)c(OC)c(OC)c2)CC1 | 0.0144 µM (active) | 0.0231 µM (active) | < 0.01 µM (active) | 0.149 µM (active) | 0.0235 µM (active) | 0.0524 µM (active) | 0.0219 µM (active) | 0.0247 µM (active) | 0.0462 µM (active) | 0.0303 µM (active) | 1.39 µM (inactive) | 0.0134 µM (active) | 0.0307 µM (active) | 0.057 µM (active) | 0.0977 µM (active) | 0.0182 µM (active) | 0.0316 µM (active) | 0.0151 µM (active) | 0.0225 µM (active) | 0.0217 µM (active) |
| C(=N/Nc1ccccn1)/c1cccnc1 | > 100 µM (inactive) | 68.7 µM (inactive) | > 100 µM (inactive) | > 100 µM (inactive) | 31 µM (inactive) | > 100 µM (inactive) | > 100 µM (inactive) | 89.3 µM (inactive) | > 100 µM (inactive) | > 100 µM (inactive) | 49.4 µM (inactive) | > 100 µM (inactive) | > 100 µM (inactive) | > 100 µM (inactive) | > 100 µM (inactive) | 58.6 µM (inactive) | > 100 µM (inactive) | > 100 µM (inactive) | > 100 µM (inactive) | > 100 µM (inactive) |
| Cc1noc(NS(=O)(=O)c2ccc(NC(=O)c3ccc4nc5ccccc5c(Nc5ccc(S(=O)(=O)Nc6onc(C)c6C)cc5)c4c3)cc2)c1C | > 100 µM (inactive) | > 100 µM (inactive) | > 100 µM (inactive) | 36.2 µM (inactive) | 25.5 µM (inactive) | 42.7 µM (inactive) | > 100 µM (inactive) | > 100 µM (inactive) | > 100 µM (inactive) | > 100 µM (inactive) | > 100 µM (inactive) | 52.1 µM (inactive) | 21 µM (inactive) | 22.1 µM (inactive) | > 100 µM (inactive) | > 100 µM (inactive) | > 100 µM (inactive) | > 100 µM (inactive) | 73.3 µM (inactive) | > 100 µM (inactive) |
| CCOC(CCNCC(OCC)OCC)OCC | > 10 µM (inactive) | > 10 µM (inactive) | > 10 µM (inactive) | > 10 µM (inactive) | > 10 µM (inactive) | > 10 µM (inactive) | > 10 µM (inactive) | > 10 µM (inactive) | > 10 µM (inactive) | > 10 µM (inactive) | > 10 µM (inactive) | > 10 µM (inactive) | > 10 µM (inactive) | > 10 µM (inactive) | > 10 µM (inactive) | > 10 µM (inactive) | > 10 µM (inactive) | > 10 µM (inactive) | > 10 µM (inactive) | > 10 µM (inactive) |
| COC(=O)C(Cc1ccccc1)NP(=O)(O)OCC1OC(n2ccc(N)nc2=O)C(O)C1O (stereo not drawn) | > 100 µM (inactive) | > 100 µM (inactive) | > 100 µM (inactive) | > 100 µM (inactive) | > 100 µM (inactive) | 50.9 µM (inactive) | > 100 µM (inactive) | > 100 µM (inactive) | > 100 µM (inactive) | > 100 µM (inactive) | > 100 µM (inactive) | > 100 µM (inactive) | > 100 µM (inactive) | > 100 µM (inactive) | > 100 µM (inactive) | > 100 µM (inactive) | > 100 µM (inactive) | > 100 µM (inactive) | > 100 µM (inactive) | > 100 µM (inactive) |
| O=C1C2=C(C(=O)c3c(O)ccc(O)c31)[C@@H](O)[C@@H](O)[C@@H](O)C2 | 3.72 µM (inactive) | 4.46 µM (inactive) | 1.49 µM (inactive) | 1.02 µM (active) | 2.77 µM (inactive) | 0.0486 µM (active) | 0.0741 µM (active) | 0.957 µM (active) | 2.75 µM (inactive) | 7.05 µM (inactive) | 2.77 µM (inactive) | 0.367 µM (active) | 2 µM (inactive) | 2.14 µM (inactive) | 1.34 µM (inactive) | 3.43 µM (inactive) | 4.82 µM (inactive) | 2.66 µM (inactive) | 1.32 µM (inactive) | 3.97 µM (inactive) |
| CN(C)CCCNc1nnc(NCCCN(C)C)c2c(=O)c3sccc3[nH]c12 | 23.2 µM (inactive) | 5.75 µM (inactive) | 3.4 µM (inactive) | 9.02 µM (inactive) | 3.48 µM (inactive) | 9.48 µM (inactive) | 2.82 µM (inactive) | 22.4 µM (inactive) | 5.69 µM (inactive) | 41.4 µM (inactive) | 8.91 µM (inactive) | 4.02 µM (inactive) | 14 µM (inactive) | 6 µM (inactive) | 35.8 µM (inactive) | 6.73 µM (inactive) | 22.2 µM (inactive) | 8.15 µM (inactive) | – | 5.77 µM (inactive) |
| COc1cc(OC)c(OC)cc1/C=C/c1nc2ccccc2s1 | 67 µM (inactive) | > 100 µM (inactive) | 17.5 µM (inactive) | 31 µM (inactive) | 5.42 µM (inactive) | > 100 µM (inactive) | > 100 µM (inactive) | > 100 µM (inactive) | > 100 µM (inactive) | 86.5 µM (inactive) | 69.7 µM (inactive) | 40.6 µM (inactive) | > 100 µM (inactive) | > 100 µM (inactive) | 6.35 µM (inactive) | 91.4 µM (inactive) | > 100 µM (inactive) | > 100 µM (inactive) | 38.7 µM (inactive) | 29.1 µM (inactive) |
| Cc1cc2c(cc1C)C(=O)c1ncccc1C2=O | > 100 µM (inactive) | 31.5 µM (inactive) | 18.7 µM (inactive) | 29.9 µM (inactive) | 17.5 µM (inactive) | 30.4 µM (inactive) | 18.3 µM (inactive) | 18.7 µM (inactive) | 31.2 µM (inactive) | 50.2 µM (inactive) | 17.4 µM (inactive) | 16.7 µM (inactive) | 29.4 µM (inactive) | 22.6 µM (inactive) | 58.6 µM (inactive) | 54.5 µM (inactive) | 35.7 µM (inactive) | 22.8 µM (inactive) | 23.3 µM (inactive) | 71.3 µM (inactive) |
| O=C1CNNC(CSc2nc3ccc(I)cc3c(=O)n2Cc2ccccc2)=N1 | 32.9 µM (inactive) | 28.1 µM (inactive) | 27.5 µM (inactive) | 22.6 µM (inactive) | 23.7 µM (inactive) | 15.4 µM (inactive) | 14.1 µM (inactive) | 26.4 µM (inactive) | 18 µM (inactive) | 27.8 µM (inactive) | 23.6 µM (inactive) | 23 µM (inactive) | 18.2 µM (inactive) | 14.5 µM (inactive) | 22.7 µM (inactive) | 11.6 µM (inactive) | 21.4 µM (inactive) | 26.8 µM (inactive) | 33.7 µM (inactive) | 32.3 µM (inactive) |
| FC(F)(F)c1cccc(-c2nc3nc(Cl)c(Cl)nc3[nH]2)c1 | 2.57 µM (inactive) | 2.69 µM (inactive) | 2.18 µM (inactive) | 0.426 µM (active) | 1.74 µM (inactive) | 1.95 µM (inactive) | 1.45 µM (inactive) | 2.22 µM (inactive) | 2.99 µM (inactive) | 1.75 µM (inactive) | 2.96 µM (inactive) | 0.764 µM (active) | 2.92 µM (inactive) | 2.02 µM (inactive) | 0.889 µM (active) | 2.42 µM (inactive) | 1.85 µM (inactive) | 2.53 µM (inactive) | 2.18 µM (inactive) | 3.22 µM (inactive) |
| O=[N+]([O-])c1ccc(C2=NOC(c3ccc(Cl)cc3)N2C23CC4CC(CC(C4)C2)C3)cc1 (stereo not drawn) | 34.9 µM (inactive) | > 100 µM (inactive) | > 100 µM (inactive) | 15.5 µM (inactive) | > 100 µM (inactive) | > 100 µM (inactive) | > 100 µM (inactive) | > 100 µM (inactive) | > 100 µM (inactive) | > 100 µM (inactive) | > 100 µM (inactive) | > 100 µM (inactive) | > 100 µM (inactive) | > 100 µM (inactive) | 25.5 µM (inactive) | > 100 µM (inactive) | > 100 µM (inactive) | > 100 µM (inactive) | > 100 µM (inactive) | > 100 µM (inactive) |
